# In patent publication US7208169B2, “Biphenyl carboxamides” (priority 2002, dated 2007):
# Read-outs that look alike come from different tables or passages of the source.
# What was measured:
# Alternaria solani = test: Alternaria test (tomato)/protective; type: in vivo; conditions: application rate 750 g/ha, protective, evaluation 7 days after inoculation
# Method: Alternaria Test (Tomato)/Protective
# • 49 parts by weight of N,N-dimethylformamide Emulsifier: • 1 part by weight of alkylaryl polyglycol ether
# (§1) To produce a suitable preparation of active compound, 1 part by weight of active compound is mixed with the stated amounts of solvent and emulsifier, and the concentrate is diluted with water to the desired concentration.
# To test for protective activity, young tomato plants are sprayed with the preparation of active compound at the stated application rate. 1 day after the treatment, the plants are inoculated with a spore suspension of Alternaria solani and then remain at 100% relative humidity and at 20° C. for 24 h. The plants then remain at 96% relative atmospheric humidity and a temperature of 20° C.
# (§2) Evaluation is carried out 7 days after the inoculation. 0% means an efficacy which corresponds to that of the control, whereas an efficacy of 100% means that no infection is observed.
# [1] = logP determination by HPLC on reversed-phase column (EEC Directive 79/831 Annex V.A8); type: physicochemical; conditions: pH 2.3, C18, 43° C., 0.1% aqueous phosphoric acid/acetonitrile, read-out: logP (pH2.3)
# Method: The logP values given in the Preparation Examples were determined in accordance with EEC Directive 79/831 Annex V.A8 by HPLC (High Performance Liquid Chromatography) using a reversed-phase column (C 18). Temperature: 43° C.
# Mobile phases for the determination in the acidic range: 0.1% aqueous phosphoric acid, acetonitrile; linear gradient from 10% acetonitrile to 90% acetonitrile.
# Calibration was carried out using unbranched alkan-2-ones (having 3 to 16 carbon atoms) with known logP values (determination of the logP values by the retention times using linear interpolation between two successive alkanones).
# Venturia inaequalis = test: Venturia test (apple)/protective; type: in vivo; conditions: application rate 100 g/ha, protective, evaluation 10 days after inoculation
# Method: Venturia Test (Apple)/Protective
# (§3) • 24.5 parts by weight of acetone • 24.5 parts by weight of dimethylacetamide Emulsifier: • 1.0 part by weight of alkylaryl polyglycol ether
# (§4) To produce a suitable preparation of active compound, 1 part by weight of active compound is mixed with the stated amounts of solvents and emulsifier, and the concentrate is diluted with water to the desired concentration.
# To test for protective activity, young plants are sprayed with the preparation of active compound at the stated application rate. After the spray coating has dried on, the plants are inoculated with an aqueous conidia suspension of the apple scab pathogen Venturia inaequalis and then remain in an incubation cabin at about 20° C. in 100% relative atmospheric humidity for 1 day.
# The plants are then placed in a greenhouse at about 21° C. and a relative atmospheric humidity of about 90%.
# (§5) Evaluation is carried out 10 days after the inoculation. 0% means an efficacy which corresponds to that of the control, whereas an efficacy of 100% means that no infection is observed.
# Podosphaera leucotricha = test: Podosphaera test (apple)/protective; type: in vivo; conditions: application rate 100 g/ha, protective, evaluation 10 days after inoculation
# Method: Podosphaera Test (Apple)/Protective
# as §3, §4
# (§6) To test for protective activity, young plants are sprayed with the preparation of active compound at the stated application rate. After the spray coating has dried on, the plants are inoculated with an aqueous spore suspension of the apple mildew pathogen Podosphaera leucotricha. The plants are then placed in a greenhouse at about 23° C. and a relative atmospheric humidity of about 70%.
# as §5
# Sphaerotheca fuliginea = test: Sphaerotheca test (cucumber)/protective; type: in vivo; conditions: Podosphaera fuliginea, 168 h, application rate 100 g/ha, protective, evaluation 7 days after inoculation, read-out: Efficacy in %
# Method: Sphaerotheca Test (Cucumber)/Protective
# as §3, §4
# as §6, with “Sphaerotheca fuliginea.” for “the apple mildew pathogen Podosphaera leucotricha.”
# as §2
# Coriolus versicolor = test: Inhibitory test using a giant colony of Basidiomycetes; type: cell-based; conditions: Trametes versicolor; 6 ppm active compound in nutrient agar; 26° C.; growth of fungal threads
# Method: Inhibitory Test Using a Giant Colony of Basidiomycetes Mycelium pieces were punched out of a giant colony of the Basidiomycetes species Coriolus versicolor and incubated at 26° C. on a nutrient agar medium containing malt extract peptone. The inhibition of the growth of the fungal threads on active-compound-containing nutrient media was compared to the longitudinal growth on nutrient media without added active compound and rated as inhibition in percent. In this test, for example, the following compounds according to the invention of the Preparation Examples show good activity: […]
# Puccinia recondita = test: Puccinia test (wheat)/protective; type: in vivo; conditions: application rate 500 g/ha, protective, evaluation 10 days after inoculation
# Method: Puccinia Test (Wheat)/Protective
# • 25 parts by weight of N,N-dimethylacetamide Emulsifier: • 0.6 part by weight of alkylaryl polyglycol ether
# as §1
# To test for protective activity, young plants are sprayed with the preparation of active compound at the stated application rate. After the spray coating has dried on, the plants are sprayed with a conidia suspension of Puccinia recondita. The plants remain in an incubation cabin at 20° C. and 100% relative atmospheric humidity for 48 hours.
# The plants are then placed in a greenhouse at a temperature of about 20° C. and a relative atmospheric humidity of 80% to promote the development of rust pustules.
# as §5
SMILES,chromatographic logP ([1]; reversed-phase C18 HPLC column),Efficacy in % (Alternaria solani) [%],Efficacy in % (Venturia inaequalis) [%],chromatographic logP [1],Efficacy in % (Podosphaera leucotricha) [%],pest or weed control at 100 g/ha (Sphaerotheca fuliginea) [%],inhibition at 6 ppm (Coriolus versicolor) [%],Efficacy in % (Puccinia recondita) [%]
Cc1nn(C)c(F)c1C(=O)Nc1c(F)cc(F)cc1-c1ccc2c(c1)OCO2 [Example 15],2.34,95,,,,,,
"Cn1cc(C(=O)Nc2ccccc2I)c(C(F)(F)F)n1 [Example (IV-1), N-(2-iodophenyl)-1-methyl-3-(trifluoromethyl)-1H-pyrazole-4-carboxamide]",2.46,,,,,,,
"OB(O)c1ccc2c(c1)OC(F)(F)C(F)(F)O2 [Example (V-1), 2,2,3,3-tetrafluoro-2,3-dihydro-1,4-benzodioxin-6-yl-boronic acid]",2.49,,,,,,,
O=C(Nc1ccccc1-c1ccc2c(c1)OC(F)(F)C(F)(F)O2)c1ccccc1C(F)(F)F [Example 6],,,99,5.93,100,100,,
O=C(Nc1ccccc1-c1ccc2c(c1)OC(F)(F)O2)c1ccccc1C(F)(F)F [Example 3],,94,,3.94,100,98,,

# More lines, main results first:
chromatographic logP ([1]; reversed-phase C18 HPLC column),SMILES,Efficacy in % (Alternaria solani) [%],Efficacy in % (Venturia inaequalis) [%],chromatographic logP [1],Efficacy in % (Podosphaera leucotricha) [%],pest or weed control at 100 g/ha (Sphaerotheca fuliginea) [%],inhibition at 6 ppm (Coriolus versicolor) [%],Efficacy in % (Puccinia recondita) [%]
3.81,Cc1nc(C(F)(F)F)c(C(=O)Nc2ccccc2-c2ccc3c(c2)OC(F)(F)O3)s1 [Example 5],,100,,100,100,,
3.99,Cc1ccsc1C(=O)Nc1ccccc1-c1ccc2c(c1)OC(F)(F)O2 [Example 4],,98,,,100,,
3.77,"Cc1nn(C)c(F)c1C(=O)Nc1ccccc1-c1ccc2c(c1)OC(F)(F)C(F)(F)O2 [Example 1, 5-fluoro-1,3-dimethyl-N-[2-(2,2,3,3-tetrafluoro-2,3-dihydro-1,4-benzodioxin-6-yl)phenyl]-1H-pyrazole-4-carboxamide]",,100,,100,98,100,100
3.37,"Cn1cc(C(=O)Nc2ccccc2-c2ccc3c(c2)OC(F)(F)O3)c(C(F)(F)F)n1 [Example 2, N-[2-(2,2-difluoro-1,3-benzodioxol-5-yl)-phenyl]-1-methyl-3-(trifluoromethyl)-1H-pyrazol-4-carboxamide]",100,100,,100,100,,
3.22,Cc1nn(C)c(F)c1C(=O)Nc1ccccc1-c1ccc2c(c1)OC(F)(F)O2 [Example 19],,96,,100,92,100,
3.94,Cc1nc(C(F)(F)F)c(C(=O)Nc2ccccc2-c2ccc3c(c2)OC(F)(F)C(F)(F)O3)s1 [Example 10],,100,,100,100,,
